The source made the active and inactive calls.
Tests used:
[1] = ZM109 Env clade C HIV-1 fusion inhibitors, dose response, HeLa effector, CEM target cells, luciferase, cherry-pick (AID 652058); assay type: functional, cell-based
[2] = off-target signal loss in HeLa-CEM21 co-culture – HeLa F-luc CTL cells, cherry-picked, counter-screen for HIV-1 Env fusion inhibitor project, dose response (AID 652040); assay type: functional, cell-based;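 also: potency for signal decrease marking cytotoxic or nonspecific inhibition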
[3] = inhibitors of clade B AD8 Env fusion, dose response, cell-based, cherry-pick (AID 652062); assay type: functional;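 also: luciferase signal from cell-cell fusion driven by HIV-1 clade B AD8 Env; potency is for inhibitors of fusion seen as a drop in luminescence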
[4] = biological target: T1, Replicative DNA helicase DnaB (Mycobacterium tuberculosis, UniProt P9WMR3); assay: DnaB intein splicing inhibitors, dose response, biochemical, cell-free fluorescence (AID 449749); assay type: functional
T1 sequence (P9WMR3 whole entry): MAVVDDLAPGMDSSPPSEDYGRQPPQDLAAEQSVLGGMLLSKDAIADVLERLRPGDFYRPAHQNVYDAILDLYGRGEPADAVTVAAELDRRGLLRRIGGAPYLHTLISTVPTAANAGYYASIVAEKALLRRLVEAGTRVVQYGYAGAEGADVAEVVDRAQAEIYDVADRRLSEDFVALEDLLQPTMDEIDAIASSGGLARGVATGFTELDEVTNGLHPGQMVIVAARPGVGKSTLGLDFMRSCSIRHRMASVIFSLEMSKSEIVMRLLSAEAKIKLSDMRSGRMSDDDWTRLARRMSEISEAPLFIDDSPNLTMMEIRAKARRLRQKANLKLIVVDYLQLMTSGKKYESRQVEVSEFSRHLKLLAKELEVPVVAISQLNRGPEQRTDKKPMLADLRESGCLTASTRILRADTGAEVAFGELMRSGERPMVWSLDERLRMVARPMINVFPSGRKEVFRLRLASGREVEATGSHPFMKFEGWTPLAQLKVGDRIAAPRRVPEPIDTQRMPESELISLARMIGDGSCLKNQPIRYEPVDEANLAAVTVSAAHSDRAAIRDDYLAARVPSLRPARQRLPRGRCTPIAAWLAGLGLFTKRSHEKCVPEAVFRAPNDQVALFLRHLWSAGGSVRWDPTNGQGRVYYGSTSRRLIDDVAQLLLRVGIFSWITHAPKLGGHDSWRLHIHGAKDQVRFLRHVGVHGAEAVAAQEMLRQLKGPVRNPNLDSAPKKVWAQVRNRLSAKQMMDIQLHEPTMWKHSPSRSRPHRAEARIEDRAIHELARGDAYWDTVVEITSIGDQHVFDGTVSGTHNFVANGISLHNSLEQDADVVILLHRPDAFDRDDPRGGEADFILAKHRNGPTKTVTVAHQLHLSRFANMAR

Protein RecA = biological target: T2, Protein RecA (Mycobacterium tuberculosis, UniProt P9WHJ3); assay: Fluorescence Cell-Free Homogeneous Dose Retest to Identify Inhibitors of RecA-Intein Splicing Activity. [Related pubchem assays (depositor defined):AID2097, AID2223, AID489010, AID492950]; assay type: functional
T2 sequence (P9WHJ3 whole entry): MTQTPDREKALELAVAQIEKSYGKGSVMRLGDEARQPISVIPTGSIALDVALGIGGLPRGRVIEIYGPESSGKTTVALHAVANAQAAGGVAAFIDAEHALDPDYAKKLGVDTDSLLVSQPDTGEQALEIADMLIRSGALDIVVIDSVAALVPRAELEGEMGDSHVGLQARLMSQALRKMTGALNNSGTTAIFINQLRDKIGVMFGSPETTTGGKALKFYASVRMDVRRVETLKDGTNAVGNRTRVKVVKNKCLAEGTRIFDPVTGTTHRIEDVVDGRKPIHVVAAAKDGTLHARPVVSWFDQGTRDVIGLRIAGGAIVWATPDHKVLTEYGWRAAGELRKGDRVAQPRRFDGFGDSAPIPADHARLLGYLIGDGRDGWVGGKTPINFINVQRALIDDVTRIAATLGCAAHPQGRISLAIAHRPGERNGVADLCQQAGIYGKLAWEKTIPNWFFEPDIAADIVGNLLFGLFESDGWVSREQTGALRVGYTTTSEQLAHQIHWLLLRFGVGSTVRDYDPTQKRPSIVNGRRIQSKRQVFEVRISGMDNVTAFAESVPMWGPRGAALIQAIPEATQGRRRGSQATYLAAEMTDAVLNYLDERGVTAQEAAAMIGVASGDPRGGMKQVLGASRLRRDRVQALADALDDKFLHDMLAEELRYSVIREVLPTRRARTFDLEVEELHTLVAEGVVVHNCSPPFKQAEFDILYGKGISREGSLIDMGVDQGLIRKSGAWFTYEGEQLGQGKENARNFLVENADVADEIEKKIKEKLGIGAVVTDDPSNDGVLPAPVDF

Fatty acid synthase [5] = biological target: T3, Fatty acid synthase (Homo sapiens, UniProt P49327); assay: FAS thioesterase domain inhibitors, dose response, biochemical, endpoint fluorescence intensity, uHTS hits (AID 624327); assay type: functional;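 also: fluorescence from hydrolysis of an O-methyl fluorescein acyl ester substrate by the enzyme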
T3 sequence (P49327 whole entry, the tested form may be a part): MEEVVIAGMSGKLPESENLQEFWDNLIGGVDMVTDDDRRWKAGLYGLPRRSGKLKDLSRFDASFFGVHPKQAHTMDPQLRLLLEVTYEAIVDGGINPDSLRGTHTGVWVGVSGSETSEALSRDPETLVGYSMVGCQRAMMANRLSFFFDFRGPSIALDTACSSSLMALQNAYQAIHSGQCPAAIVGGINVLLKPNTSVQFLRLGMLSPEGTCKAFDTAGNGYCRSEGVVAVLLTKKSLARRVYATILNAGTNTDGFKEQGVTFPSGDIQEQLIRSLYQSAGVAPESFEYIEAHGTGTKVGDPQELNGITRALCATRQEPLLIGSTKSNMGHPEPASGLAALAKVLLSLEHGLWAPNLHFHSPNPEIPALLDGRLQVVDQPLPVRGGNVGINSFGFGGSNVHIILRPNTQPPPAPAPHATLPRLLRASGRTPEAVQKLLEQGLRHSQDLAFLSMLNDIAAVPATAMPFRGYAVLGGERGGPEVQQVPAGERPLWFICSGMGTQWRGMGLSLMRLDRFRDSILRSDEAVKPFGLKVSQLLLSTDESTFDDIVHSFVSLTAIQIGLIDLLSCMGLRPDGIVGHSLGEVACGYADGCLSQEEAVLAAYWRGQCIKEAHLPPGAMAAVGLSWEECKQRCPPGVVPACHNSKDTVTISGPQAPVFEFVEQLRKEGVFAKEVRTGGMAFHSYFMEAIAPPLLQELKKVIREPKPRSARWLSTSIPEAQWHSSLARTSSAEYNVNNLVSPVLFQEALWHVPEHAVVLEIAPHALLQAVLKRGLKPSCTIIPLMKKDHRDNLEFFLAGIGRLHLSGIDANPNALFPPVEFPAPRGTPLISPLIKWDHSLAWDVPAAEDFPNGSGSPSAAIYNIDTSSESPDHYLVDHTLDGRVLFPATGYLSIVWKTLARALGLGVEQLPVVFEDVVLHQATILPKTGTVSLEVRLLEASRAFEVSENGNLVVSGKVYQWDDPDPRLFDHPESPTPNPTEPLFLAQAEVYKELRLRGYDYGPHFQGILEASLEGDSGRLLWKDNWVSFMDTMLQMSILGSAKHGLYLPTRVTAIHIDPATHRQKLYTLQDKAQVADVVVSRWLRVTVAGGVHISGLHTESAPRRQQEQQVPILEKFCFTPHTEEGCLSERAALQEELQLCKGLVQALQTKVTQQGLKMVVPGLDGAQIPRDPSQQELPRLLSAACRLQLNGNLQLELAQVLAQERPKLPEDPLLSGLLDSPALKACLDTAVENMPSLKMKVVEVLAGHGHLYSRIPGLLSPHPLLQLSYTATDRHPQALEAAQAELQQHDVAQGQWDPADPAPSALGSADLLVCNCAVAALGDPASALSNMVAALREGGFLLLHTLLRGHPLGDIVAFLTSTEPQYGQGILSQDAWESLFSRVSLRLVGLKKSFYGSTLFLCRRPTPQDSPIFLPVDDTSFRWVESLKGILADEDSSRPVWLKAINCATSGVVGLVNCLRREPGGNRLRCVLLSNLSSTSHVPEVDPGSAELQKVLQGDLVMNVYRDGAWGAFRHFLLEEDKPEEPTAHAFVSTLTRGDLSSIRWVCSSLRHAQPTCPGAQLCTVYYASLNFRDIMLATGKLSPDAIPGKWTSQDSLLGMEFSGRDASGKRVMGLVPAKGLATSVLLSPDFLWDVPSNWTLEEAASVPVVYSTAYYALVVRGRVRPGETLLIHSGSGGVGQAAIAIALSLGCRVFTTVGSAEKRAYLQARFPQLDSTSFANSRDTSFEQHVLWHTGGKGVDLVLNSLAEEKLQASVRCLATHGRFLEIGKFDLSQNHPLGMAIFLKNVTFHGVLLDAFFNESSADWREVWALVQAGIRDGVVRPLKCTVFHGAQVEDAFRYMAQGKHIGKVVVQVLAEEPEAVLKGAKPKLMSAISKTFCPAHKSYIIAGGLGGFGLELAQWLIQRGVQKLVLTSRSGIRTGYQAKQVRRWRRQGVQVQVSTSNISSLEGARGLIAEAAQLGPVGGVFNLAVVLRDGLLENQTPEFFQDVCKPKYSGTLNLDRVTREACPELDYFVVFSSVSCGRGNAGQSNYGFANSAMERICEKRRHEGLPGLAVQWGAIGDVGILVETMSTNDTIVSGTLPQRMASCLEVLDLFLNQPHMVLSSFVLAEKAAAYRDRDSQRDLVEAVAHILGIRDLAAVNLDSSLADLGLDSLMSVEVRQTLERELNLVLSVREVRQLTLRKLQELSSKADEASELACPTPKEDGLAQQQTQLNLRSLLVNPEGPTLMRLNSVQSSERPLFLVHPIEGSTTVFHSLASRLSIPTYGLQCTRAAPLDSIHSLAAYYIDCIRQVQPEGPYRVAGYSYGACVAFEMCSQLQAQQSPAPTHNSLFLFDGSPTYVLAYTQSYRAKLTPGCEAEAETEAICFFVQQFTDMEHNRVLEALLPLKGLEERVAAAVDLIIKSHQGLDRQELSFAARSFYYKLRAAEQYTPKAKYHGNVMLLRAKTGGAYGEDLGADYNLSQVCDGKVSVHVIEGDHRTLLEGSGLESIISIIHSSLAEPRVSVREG

Fatty acid synthase [6] = biological target: T3, Fatty acid synthase; assay: FAS thioesterase domain inhibitors, dose response, biochemical, kinetic fluorescence intensity (AID 624326); assay type: functional;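 also: rate of fluorescence rise from hydrolysis of a fluorogenic O-methyl fluorescein ester substrate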
cells = assay type: functional
[7] = Luminescence Cell-Based Dose Confirmation HTS to Identify Activators of 5'UTR Stem-Loop Driven Alpha-Synuclein mRNA Translation in H4 Neuroglioblastoma Cells. [Related pubchem assays: 1829 (Project Summary), 1814 (Primary HTS)]; assay type: functional
[8] = Luminescence Cell-Based Dose Response HTS to Identify Activators of Luciferase Translation or Activity in H4 […] Cells. [Related pubchem assays: 1829 (Project Summary), 1814 (Primary HTS)]; assay type: functional
H4 = assay: Luminescence Cell-Based Dose Response HTS to Identify Activators of 5'UTR Stem-Loop Driven Prion Protein mRNA Translation in H4 Neuroglioblastoma Cells. [Related pubchem assays: 1829 (Project Summary), 1814 (Primary HTS)]; assay type: functional; details: Homo sapiens
Large T antigen = Large T antigen (Simian virus 40, UniProt P03070); assay type: functional, Betapolyomavirus macacae;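 also: Confirmatory-stage PubChem screen for compounds that inhibit SV40 T antigen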
Sequence of Large T antigen (P03070 whole entry, the tested form may be a part): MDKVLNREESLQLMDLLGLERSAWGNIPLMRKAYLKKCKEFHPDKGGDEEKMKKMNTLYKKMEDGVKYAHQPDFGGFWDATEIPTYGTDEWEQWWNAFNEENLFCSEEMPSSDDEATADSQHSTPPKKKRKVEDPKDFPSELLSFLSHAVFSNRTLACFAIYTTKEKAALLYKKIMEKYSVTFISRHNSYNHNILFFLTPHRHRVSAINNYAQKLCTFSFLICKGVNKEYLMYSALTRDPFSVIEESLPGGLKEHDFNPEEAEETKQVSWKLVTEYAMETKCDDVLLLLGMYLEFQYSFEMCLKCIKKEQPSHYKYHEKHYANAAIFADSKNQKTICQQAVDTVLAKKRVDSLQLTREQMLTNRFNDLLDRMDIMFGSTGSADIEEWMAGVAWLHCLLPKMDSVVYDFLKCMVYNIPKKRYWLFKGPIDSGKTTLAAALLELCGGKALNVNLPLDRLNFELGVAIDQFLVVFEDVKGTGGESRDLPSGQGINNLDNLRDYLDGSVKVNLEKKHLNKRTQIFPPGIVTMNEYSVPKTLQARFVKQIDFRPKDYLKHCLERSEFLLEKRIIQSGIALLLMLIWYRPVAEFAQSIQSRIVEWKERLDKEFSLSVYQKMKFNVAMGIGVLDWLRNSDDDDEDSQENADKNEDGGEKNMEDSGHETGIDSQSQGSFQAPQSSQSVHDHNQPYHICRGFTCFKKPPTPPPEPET

[9] = inhibitors of HIV Env-driven cell fusion, dose response, cherry-pick (AID 652057); assay type: functional, cell-based
[10] = biological target: T4, Histone-lysine N-methyltransferase NSD2 (Homo sapiens, UniProt O96028); assay type: biochemical
T4 sequence (O96028 whole entry): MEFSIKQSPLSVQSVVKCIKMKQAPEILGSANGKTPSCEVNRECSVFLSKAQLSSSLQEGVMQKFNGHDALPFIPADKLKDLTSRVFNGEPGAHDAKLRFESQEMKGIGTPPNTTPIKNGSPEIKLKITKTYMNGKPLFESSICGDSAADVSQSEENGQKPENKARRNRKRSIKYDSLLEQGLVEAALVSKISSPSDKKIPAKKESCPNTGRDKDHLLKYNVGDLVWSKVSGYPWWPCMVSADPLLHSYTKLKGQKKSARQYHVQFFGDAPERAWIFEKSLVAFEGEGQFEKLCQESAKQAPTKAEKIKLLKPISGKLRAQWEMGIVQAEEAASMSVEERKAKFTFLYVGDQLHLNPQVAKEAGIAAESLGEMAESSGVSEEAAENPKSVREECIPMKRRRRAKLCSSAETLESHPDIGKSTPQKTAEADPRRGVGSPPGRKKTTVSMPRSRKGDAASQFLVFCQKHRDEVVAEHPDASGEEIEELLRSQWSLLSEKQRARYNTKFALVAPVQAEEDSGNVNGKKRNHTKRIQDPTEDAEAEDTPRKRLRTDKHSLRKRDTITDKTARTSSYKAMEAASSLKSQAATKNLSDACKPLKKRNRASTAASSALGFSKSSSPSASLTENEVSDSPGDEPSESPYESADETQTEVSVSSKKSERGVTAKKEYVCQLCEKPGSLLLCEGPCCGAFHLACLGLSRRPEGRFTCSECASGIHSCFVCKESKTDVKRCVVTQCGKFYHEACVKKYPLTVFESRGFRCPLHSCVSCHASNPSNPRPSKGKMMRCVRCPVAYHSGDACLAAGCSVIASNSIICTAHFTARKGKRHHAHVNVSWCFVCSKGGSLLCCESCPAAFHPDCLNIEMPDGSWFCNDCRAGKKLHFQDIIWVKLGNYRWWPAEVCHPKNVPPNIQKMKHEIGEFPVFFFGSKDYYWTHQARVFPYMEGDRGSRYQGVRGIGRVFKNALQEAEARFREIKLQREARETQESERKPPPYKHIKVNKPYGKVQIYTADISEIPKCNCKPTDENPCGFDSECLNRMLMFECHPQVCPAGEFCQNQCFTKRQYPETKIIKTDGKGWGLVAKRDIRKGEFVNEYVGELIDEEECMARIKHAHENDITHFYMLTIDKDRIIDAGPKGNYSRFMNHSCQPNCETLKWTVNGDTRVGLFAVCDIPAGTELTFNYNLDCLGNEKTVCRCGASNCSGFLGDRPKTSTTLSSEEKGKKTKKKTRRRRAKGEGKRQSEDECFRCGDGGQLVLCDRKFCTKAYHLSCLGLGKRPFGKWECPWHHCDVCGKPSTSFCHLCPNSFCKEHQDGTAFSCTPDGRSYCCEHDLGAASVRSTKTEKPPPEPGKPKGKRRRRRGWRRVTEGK

[11] = biological target: FAD-linked sulfhydryl oxidase ALR (Homo sapiens, UniProt P55789); assay: inhibitors of human ALR sulfhydryl oxidase, dose response, biochemical, H2O2 detection, luminescence, cherry-pick (AID 493248)
Sequence of FAD-linked sulfhydryl oxidase ALR (P55789 whole entry): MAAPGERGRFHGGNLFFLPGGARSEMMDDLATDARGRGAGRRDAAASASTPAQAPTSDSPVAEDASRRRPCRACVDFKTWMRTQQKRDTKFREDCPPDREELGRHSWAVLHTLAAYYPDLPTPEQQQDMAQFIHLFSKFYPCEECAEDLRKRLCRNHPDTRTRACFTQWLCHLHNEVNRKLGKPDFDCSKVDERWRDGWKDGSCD

[12] = biological target: T5, Rac GTPase-activating protein 1 (Homo sapiens, UniProt Q9H0H5); assay: MgcRacGAP GTPase-activating activity inhibitors, confirmation, biochemical, ADP Hunter fluorescence, primary and confirmatory (AID 624330); assay type: functional
T5 sequence (Q9H0H5 whole entry): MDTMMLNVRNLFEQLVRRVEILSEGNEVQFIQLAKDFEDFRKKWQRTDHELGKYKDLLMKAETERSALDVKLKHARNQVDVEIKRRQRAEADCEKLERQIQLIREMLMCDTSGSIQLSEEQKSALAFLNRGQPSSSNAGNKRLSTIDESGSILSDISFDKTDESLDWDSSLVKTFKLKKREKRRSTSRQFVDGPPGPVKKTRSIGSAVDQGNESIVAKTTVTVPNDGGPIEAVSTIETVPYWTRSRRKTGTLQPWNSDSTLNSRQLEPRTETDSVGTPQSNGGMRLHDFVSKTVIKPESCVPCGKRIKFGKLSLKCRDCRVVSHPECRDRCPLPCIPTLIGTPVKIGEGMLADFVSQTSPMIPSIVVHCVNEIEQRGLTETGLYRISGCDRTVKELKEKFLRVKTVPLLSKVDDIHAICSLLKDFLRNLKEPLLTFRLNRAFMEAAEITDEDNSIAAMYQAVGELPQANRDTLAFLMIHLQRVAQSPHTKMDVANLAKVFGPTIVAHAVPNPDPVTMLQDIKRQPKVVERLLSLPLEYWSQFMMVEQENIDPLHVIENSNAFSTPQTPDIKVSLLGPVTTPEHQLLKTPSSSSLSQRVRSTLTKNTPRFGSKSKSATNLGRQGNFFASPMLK

[13] = Shn3 3'UTR reporter inhibitors, dose response, cell-based, Clone20 osteoblasts, firefly luciferase, cherry-picked (AID 624132); assay type: functional;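 also: firefly luciferase luminescence from reporter carrying the Shn3 3'UTR in osteoblasts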

Cc1cc(Oc2ccc(C#N)cc2)nc(NCc2ccccc2)n1
AC50 [1]: 5.62 µM (active)
AC50 [2]: > 70 µM (inactive)
AC50 [3]: 9.81 µM (active)

CCN1Cc2c(/C=C/c3ccccc3)nc3ccc(OC)cc3c2N(c2cccc(Cl)c2)C1
AC50 [4]: > 380 µM (inactive)
EC50 (Protein RecA): 17.6 µM (active)
IC50 (Fatty acid synthase [5]): 2.35 µM (active)
IC50 (Fatty acid synthase [6]): 3.61 µM (active)

CC(NC(=O)c1cc([N+](=O)[O-])cc([N+](=O)[O-])c1)c1ccc(-n2ccnc2)cc1 (centres undefined)
IC50 (cells): 1.43 µM (active)
IC50 (Fatty acid synthase [5]): 10.1 µM (active)
IC50 (Fatty acid synthase [6]): 6.68 µM (active)

O=C(c1ccco1)N1CCCC(Nc2ccc3c(c2)OCCO3)C1 (centres undefined)
EC50 [7]: 8.81 µM (active)
EC50 [8]: 9.98 µM (active)
EC50 (H4): 37.7 µM (active)
IC50 (Large T antigen): 29.3 µM (active)

Cc1oc(-c2ccccc2F)nc1CN1CCC(C(=O)NCCC2=CCCCC2)CC1
AC50 [9]: 5.29 µM (active)
AC50 [1]: 4.91 µM (active)
AC50 [3]: 1.28 µM (active)

CNCc1ccccc1OCc1ccc(F)cc1
AC50 [10]: > 20 µM (inactive)

CCN(CC)CCSc1nc2ccccc2c(=S)n1-c1ccccc1
AC50 [10]: > 20 µM (inactive)

CNCc1ccc(OCc2ccccc2)c(OC)c1
AC50 [10]: > 20 µM (inactive)

COc1ccc([C@H]2/C=C\CN(C(=O)C3CC3)[C@@H](C)C(=O)N2Cc2ccc(F)cc2)cc1
AC50 [9]: 4.42 µM (active)
AC50 [1]: 0.488 µM (active)
AC50 [2]: 7.85 µM (active)
AC50 [3]: 4.99 µM (active)

O=C(N(Cc1ccccc1)c1ccccn1)C12CC3CC(CC(C3)C1)C2
AC50 [9]: 1.62 µM (active)
AC50 [1]: 2.19 µM (active)
AC50 [2]: 2.99 µM (active)
AC50 [3]: 6.03 µM (active)

COc1cc(/C=N/n2nnnc2N)ccc1O
IC50 (Large T antigen): 4.83 µM (active)
AC50 [11]: 1.2 µM (active)
IC50 [12]: 16.9 µM (active)

CCc1ccc(C2CC(=O)N3CN(c4ccccc4)CSC3=C2C#N)cc1 (centres undefined)
IC50 (Large T antigen): 70.1 µM (active)

COc1ccc(S(=O)(=O)Nc2ccc3c(c2)CC(=O)N([C@@H](C)CO)C[C@H](C)[C@H](CN(C)S(=O)(=O)c2ccc(F)cc2)O3)cc1
AC50 [9]: 10 µM (active)
AC50 [1]: 11.4 µM (active)
AC50 [3]: 18.6 µM (active)

COc1ccc(/N=C/c2c(O)cc(C)oc2=O)cc1
IC50 (Large T antigen): 7.84 µM (active)
IC50 [12]: 85.2 µM (active)

Cc1cc([N+](=O)[O-])cc2c1NC(=O)C2(O)N1CCOCC1 (centres undefined)
AC50 [10]: 15.7 µM (active)

CCOc1ccc2nc(SC3CC(=O)N(c4ccc(C)cc4)C3=O)sc2c1 (centres undefined)
AC50 [13]: 15.6 µM (active)

— ChEMBL document CHEMBL1201862, “PubChem BioAssay data set” (2004)
